The text below walks through data of patent US20220160703A1, “TUMOR-SELECTIVE COMBINATION THERAPY” (The Board of Regents of The University of Texas System, priority 2019, published 2022).

For assay [1], the system named is MC38-OVA cells. Nature of the assay: Prophylactic tumor vaccination with β-lap-induced dying MC38-OVA cells. The class given is in vivo, mice. The note with it: β-lap-induced dying MC38-OVA cells s.c., rechallenge after 7 days.
From the text: (FIG. 5B) The research schema for in vivo cross-presentation of tumor specific antigen from β-lap-induced dying tumor cells in FIG. 5C and FIG. 5D. (FIGS. 5C-D) Live or β-lap-induced dying MC38-OVA cells were subcutaneously inoculated into the flank of WT or Tlr4^−/− C57BL/6 (n=3-4/group) mice along with or without anti-HMGB1 antibody. 5 days later, the tumor drain lymph mode cells were collected and re-stimulated with OVA protein, OT-1 peptide or irradiated MC38-OVA cells for 48 hr. IFNγ producing cells were determined by ELISPOTs assay (FIG. 5C), and IFNγ secretion level was quantified by CBA mouse IFNγ assay (FIG. 5D). (FIG. 5E) The research schema for the immunogenic vaccine assay in FIG. 5F. (FIG. 5F) MC38-OVA cells treated with β-lap in vitro were inoculated s.c. along with or without anti-HMGB1 antibody into the flank of C57BL/6 mice (n=5-7/group). […] Data are shown as mean±SEM from at least two to three independent experiments. *P<0.05, **P<0.01, and ***P<0.001 determined by two-way ANOVA (FIG. 5C and FIG. 5D) or log-rank test (FIG. 5F).
The numbers of tumor antigen-specific T cells (FIG. 5C) and IFNγ production (FIG. 5D) in TdLN were determined; (ii) C57BL/6 mice that received vaccination with β-lap-induced dying MC38-OVA cells in the presence of anti-HMGB1Ab were rechallanged with MC38-OVA for evaluation of the antitumor protection (FIGS. 5E-F). […]
Assay [2] relates to A549 tumor. Nature of the assay: A549 xenograft in NSG-SGM3 humanized mouse model. The class given is in vivo, mice. The note with it: Hu-NSG-SGM3 versus NSG-SGM3, β-lap 0.2 mg i.t. four times. On the procedure: FIGS. 2A-F. β-Lap's antitumor effect is CD8^+ T cell dependent. (FIG. 2A) MC38 cells were subcutaneously transplanted into C57BL/6 WT (n=5-6/group) and Rag1 KO mice (n=5/group), respectively. Tumor bearing mice were treated with β-lap (0.3 mg, i.t.) every other day for four times. Numbers of tumor free mice after treatment were shown. (FIG. 2B) MC38 tumor bearing C57BL/6 mice (n=5/group) were treated with β-lap (0.3 mg, i.t.) every other day for four times. For CD8^+ T cell depletion, 200 μg of anti-CD8 antibodies were intraperitoneally injected four times at three days interval during the treatment. […] (FIG. 2D) Naïve (n=5/group) and β-lap cured MC38 tumor free (n=7/group) C57BL/6 mice were rechallenged subcutaneously with 3×10^6 MC38 cells on the opposite site from the primary tumor 30 days after complete rejection, and tumor growth curve was monitored. […] Tumor growth was measured twice a week. Data are shown as mean±SEM from three independent experiments. **P<0.01, ***P<0.001, ****P<0.0001 determined by two-way ANOVA.
For NSG-SGM3 humanized mouse model, four-week-old NSG-SGM3 female mice were irradiated with 100 cGy (X-ray irradiation with X-RAD 320 irradiator) one day prior to human CD34+ cells transfer. […] Tumor volumes were measured at least twice weekly. […]
A general note: A xenograft is tissue or cells of one species grown in another, often human tumour cells in immunodeficient mice.

Assay [3] deals with A549 tumor. Nature of the assay: A549 xenograft in immune-reconstituted C57BL/6 Rag1−/− mice. The class given is in vivo. The note with it: β-lap 0.2 mg i.t. four times. On the procedure: FIGS. 2A-F. β-Lap's antitumor effect is CD8^+ T cell dependent. (FIG. 2A) MC38 cells were subcutaneously transplanted into C57BL/6 WT (n=5-6/group) and Rag1 KO mice (n=5/group), respectively. Tumor bearing mice were treated with β-lap (0.3 mg, i.t.) every other day for four times. Numbers of tumor free mice after treatment were shown. (FIG. 2B) MC38 tumor bearing C57BL/6 mice (n=5/group) were treated with β-lap (0.3 mg, i.t.) every other day for four times. For CD8^+ T cell depletion, 200 μg of anti-CD8 antibodies were intraperitoneally injected four times at three days interval during the treatment. (FIG. 2C) TC-1 tumor bearing C57BL/6 mice (n=4-5/group) were treated with β-lap (0.1 mg, i.t.) for four times with or without anti-CD8 antibodies. (FIG. 2D) Naïve (n=5/group) and β-lap cured MC38 tumor free (n=7/group) C57BL/6 mice were rechallenged subcutaneously with 3×10^6 MC38 cells on the opposite site from the primary tumor 30 days after complete rejection, and tumor growth curve was monitored. […] Tumor growth was measured twice a week. Data are shown as mean±SEM from three independent experiments. **P<0.01, ***P<0.001, ****P<0.0001 determined by two-way ANOVA.
Immune reconstituted mouse models. […] Tumor volumes were measured at least twice weekly.

The subject of assay [4] is IFNα/β. Nature of the assay: Type I IFN and cytokine expression in tumor tissue (ELISA, PCR). The class given is in vivo, mice. The note with it: MC38-OVA, β-lap 0.3 mg i.t. two times, six days later. On the procedure: FIGS. 19A-C (related to FIGS. 4A-F). TLR4/MyD88 pathway but not TLR9 signaling is required for the antitumor effect of β-lap. (FIGS. 19A-B) MC38-OVA bearing mice were treated with β-lap (0.3 mg, i.t.) for two times. Six days later, tumor tissues were collected for both single cell digestion (FIG. 19A) and RNA extraction (FIG. 19B). (FIG. 19A) The secreted IFNβ from the suspended cell supernatant was measured by ELISA after a 24 hr culture. (FIG. 19B) The mRNA levels of IFNα1, IFNγ, TNFα and CXCL10 were determined by real-time PCR assay. (FIG. 19C) MC38 cells were implanted into Myd88^−/−, Tlr4^−/− and Tlr9^−/− C57BL/6 mice, respectively. Tumor bearing mice were then treated with β-lap (0.3 mg, i.t.) every other day for four times. Tumor growth was monitored twice a week. Data are shown as mean±SEM. *P<0.05, **P<0.01, ***P<0.001 determined by unpaired t-test. FIGS. 25A-E. IB-DNQ induces tumor ICD and dendritic cell-mediated T cell cross-priming. (FIG. 25A) The levels of HMGB1 released into cell culture supernatant after IB-DNQ treatment. MC38, MC38 NOQ1^−/−, B16, and B16 NOQ1^+ cells were treated with IB-DNQ for 4 h followed by replacing medium and growth for 24 h, culture supernatant was collected and HMGB1 levels were determined by ELISA. (FIGS. 25B-C) Relative expression of IFN-α and IFN-β. […]

With `CC1(C)CCC2=C(O1)c1ccccc1C(=O)C2=O` [β-lap, β-lapachone], the “growth of re-challenged tumor after immunization” value in assay [1] was “prevented the growth of the re-challenged tumor”. The “tumor control in presence of human immune system” value in assay [2] was “much better tumor control”. For the same compound, the “tumor growth without T cell transfer” value in assay [3] (no OT-1 LN cells) is given as “only partially inhibited”. The tumors completely rejected in assay [3] (with 2×10^6 OT-1 LN cells) was 50%. Further, the “IFNα/β, CXCL10, IFNγ and TNFα in treated tumors” value in assay [4] is listed as “upregulated”.
